Data as given in BigSolDB 2.1.

CCCOC(=O)c1cc(O)c(O)c(O)c1
solubility (mole fraction)
Details | in acetone | in ethanol | in ethyl acetate | in isobutanol | in isopropanol | in methanol | in methyl acetate | in n-butanol | in n-propanol
293.15 K | 0.291 | 0.182 | 0.222 | 0.189 | 0.253 | 0.226 | 0.244 | 0.243 | 0.264
298.15 K | 0.311 | 0.201 | 0.24 | 0.209 | 0.273 | 0.242 | 0.264 | 0.259 | 0.283
303.15 K | 0.33 | 0.222 | 0.258 | 0.229 | 0.293 | 0.258 | 0.285 | 0.275 | 0.302
308.15 K | 0.35 | 0.244 | 0.276 | 0.25 | 0.314 | 0.276 | 0.306 | 0.293 | 0.321
313.15 K | 0.369 | 0.266 | 0.295 | 0.272 | 0.336 | 0.295 | 0.329 | 0.312 | 0.34
318.15 K | 0.387 | 0.288 | 0.314 | 0.295 | 0.359 | 0.316 | 0.351 | 0.333 | 0.36
323.15 K | 0.404 | 0.311 | 0.333 | 0.319 | 0.383 | 0.339 | 0.375 | 0.356 | 0.382
328.15 K | 0.412 | 0.323 | 0.343 | 0.331 | 0.396 | 0.351 | 0.39 | 0.368 | 0.394
333.15 K | 0.419 | 0.334 | 0.353 | 0.344 | 0.409 | 0.363 | 0.402 | 0.381 | 0.406
